Data from ChEMBL document CHEMBL1201862, “PubChem BioAssay data set” (2004).
The source made the active and inactive calls.

Tests used:
[1] = HEK-293T cell viability reduction – luminescence, B-cell screen hits, cytotoxicity control for BCR NF-kB inhibitor project, dose response (AID 489021); format: functional, cell-based;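 further: HEK-293T cells carrying an NF-kB luciferase reporter; cells exposed to compound for about 14 hours before viability readout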
[2] = test system: INS1; assay: INS-1E survival protection against cytokine death – cell-based, luminescence, retest, dose response (AID 449756); format: functional; settings: Rattus norvegicus;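 further: cell death triggered by IL-1 beta plus TNF-alpha plus IFN-gamma mixture; protective hits raise ATP signal compared with cytokine alone wells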
[3] = target: G-protein coupled receptor 55 (Homo sapiens, UniProt Q9Y2T6); assay: selective activators of receptor GPR55 – imaging, U2OS cells, beta-arrestin-GFP redistribution, primary screen (AID 1961); format: functional
G-protein coupled receptor 55, sequence (Q9Y2T6 whole entry): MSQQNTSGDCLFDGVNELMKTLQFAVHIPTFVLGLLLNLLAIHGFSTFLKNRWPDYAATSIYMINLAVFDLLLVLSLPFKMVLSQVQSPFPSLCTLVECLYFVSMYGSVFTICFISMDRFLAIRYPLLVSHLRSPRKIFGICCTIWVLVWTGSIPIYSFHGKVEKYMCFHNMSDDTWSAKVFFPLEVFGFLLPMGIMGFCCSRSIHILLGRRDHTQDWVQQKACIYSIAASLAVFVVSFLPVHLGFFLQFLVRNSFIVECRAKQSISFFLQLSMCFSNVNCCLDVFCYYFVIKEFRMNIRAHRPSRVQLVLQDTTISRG

[4] = target: T1, High affinity choline transporter 1 (Homo sapiens, UniProt Q9GZV3); assay: human choline transporter blockers, potency – cell-based, 5-point CRC, membrane potential dye, dose response (AID 504840); format: functional
T1 sequence (Q9GZV3 whole entry): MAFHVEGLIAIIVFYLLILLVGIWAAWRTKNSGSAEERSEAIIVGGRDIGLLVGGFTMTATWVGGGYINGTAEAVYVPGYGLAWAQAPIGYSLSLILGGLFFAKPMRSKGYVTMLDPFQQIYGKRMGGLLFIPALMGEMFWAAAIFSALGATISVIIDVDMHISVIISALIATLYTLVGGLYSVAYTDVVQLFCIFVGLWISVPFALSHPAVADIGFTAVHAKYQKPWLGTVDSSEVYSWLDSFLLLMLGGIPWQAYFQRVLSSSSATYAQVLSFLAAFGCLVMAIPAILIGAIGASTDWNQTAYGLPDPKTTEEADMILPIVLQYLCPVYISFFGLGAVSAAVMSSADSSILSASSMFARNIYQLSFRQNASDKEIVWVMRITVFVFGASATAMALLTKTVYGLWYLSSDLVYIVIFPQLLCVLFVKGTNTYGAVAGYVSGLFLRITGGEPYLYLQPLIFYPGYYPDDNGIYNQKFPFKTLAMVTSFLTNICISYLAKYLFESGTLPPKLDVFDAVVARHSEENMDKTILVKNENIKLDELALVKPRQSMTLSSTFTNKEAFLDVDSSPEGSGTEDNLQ

[5] = target: T2, Cysteine protease ATG4B (Homo sapiens, UniProt Q9Y4P1); format: functional;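 further: Fluorescence-based dose-response confirmation assay measuring inhibition of ATG4B activity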
T2 sequence (Q9Y4P1 whole entry): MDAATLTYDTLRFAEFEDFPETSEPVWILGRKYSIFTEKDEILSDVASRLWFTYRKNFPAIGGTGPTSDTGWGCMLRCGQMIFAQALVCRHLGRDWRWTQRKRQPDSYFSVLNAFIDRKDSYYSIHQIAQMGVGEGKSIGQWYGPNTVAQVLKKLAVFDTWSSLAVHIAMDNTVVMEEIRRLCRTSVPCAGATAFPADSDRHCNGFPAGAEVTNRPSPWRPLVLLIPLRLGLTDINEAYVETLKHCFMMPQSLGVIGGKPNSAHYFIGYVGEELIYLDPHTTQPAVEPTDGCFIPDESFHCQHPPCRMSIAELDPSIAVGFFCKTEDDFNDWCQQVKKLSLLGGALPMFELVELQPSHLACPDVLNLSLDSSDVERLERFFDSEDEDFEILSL

[6] = NIH3T3 cell viability loss – ATP luminescence, mouse fibroblasts, counter-screen, dose response (AID 2010); format: functional, cell-based;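 further: cells exposed to compound for about 90 hours before reading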
[7] = Trypanosoma cruzi growth suppression in host cells – NIH3T3 host cells, beta-gal luminescence, confirmation (AID 2044); format: functional, cell-based;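 further: intracellular parasites grown in NIH/3T3 mouse fibroblasts as host cells; luminescent beta-galactosidase reporter signal from transgenic T. cruzi replicating inside host cells; inhibitors lower the luminescence signal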
[8] = target: Phospholipase A2 (Homo sapiens, UniProt P04054); format: functional;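 further: confirmatory dose-response counterscreen on phospholipase A2, testing hits that came from an ultra-high-throughput screen for ATG4B inhibitors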
Phospholipase A2, sequence (P04054 whole entry): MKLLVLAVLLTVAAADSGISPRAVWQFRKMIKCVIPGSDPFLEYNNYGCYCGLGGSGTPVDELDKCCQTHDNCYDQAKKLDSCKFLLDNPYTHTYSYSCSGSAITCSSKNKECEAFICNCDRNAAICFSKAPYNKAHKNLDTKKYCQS

[9] = target: T3, Aminopeptidase N (Plasmodium falciparum FcB1/Columbia, UniProt O96935); assay: malaria alanyl aminopeptidase activity blockers – biochemical, fluorogenic H-Leu-NHMec substrate, 1536-well (AID 1445); design: species or system Plasmodium falciparum 3D7, 3D7
T3 sequence (O96935 whole entry): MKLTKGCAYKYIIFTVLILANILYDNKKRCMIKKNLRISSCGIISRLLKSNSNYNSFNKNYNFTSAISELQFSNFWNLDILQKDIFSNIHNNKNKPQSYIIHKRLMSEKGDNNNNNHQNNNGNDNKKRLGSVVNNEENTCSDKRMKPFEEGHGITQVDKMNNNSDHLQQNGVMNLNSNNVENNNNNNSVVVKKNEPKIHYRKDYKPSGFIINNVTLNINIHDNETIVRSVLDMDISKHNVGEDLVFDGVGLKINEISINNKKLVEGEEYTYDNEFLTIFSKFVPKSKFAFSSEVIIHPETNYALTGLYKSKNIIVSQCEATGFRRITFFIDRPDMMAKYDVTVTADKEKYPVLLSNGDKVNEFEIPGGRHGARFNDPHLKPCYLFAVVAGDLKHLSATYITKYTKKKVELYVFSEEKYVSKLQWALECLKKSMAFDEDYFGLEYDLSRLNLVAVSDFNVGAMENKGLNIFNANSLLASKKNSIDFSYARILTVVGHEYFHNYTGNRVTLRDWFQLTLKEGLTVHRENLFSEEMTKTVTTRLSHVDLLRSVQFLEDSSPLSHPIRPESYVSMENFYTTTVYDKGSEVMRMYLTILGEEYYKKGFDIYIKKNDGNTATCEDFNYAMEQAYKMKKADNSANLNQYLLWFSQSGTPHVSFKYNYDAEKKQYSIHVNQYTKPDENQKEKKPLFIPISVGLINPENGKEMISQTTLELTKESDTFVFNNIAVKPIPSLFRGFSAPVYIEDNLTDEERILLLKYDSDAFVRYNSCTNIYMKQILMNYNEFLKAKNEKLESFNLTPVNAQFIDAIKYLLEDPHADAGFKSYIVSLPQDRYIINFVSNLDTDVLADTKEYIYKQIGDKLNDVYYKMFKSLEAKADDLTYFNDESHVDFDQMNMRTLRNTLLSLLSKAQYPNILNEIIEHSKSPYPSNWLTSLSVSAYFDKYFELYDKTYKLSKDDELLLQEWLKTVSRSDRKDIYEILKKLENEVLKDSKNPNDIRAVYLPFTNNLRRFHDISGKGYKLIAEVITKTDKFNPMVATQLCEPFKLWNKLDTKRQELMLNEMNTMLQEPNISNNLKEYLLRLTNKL

[10] = target: Cytochrome P450 2D6 (Homo sapiens, UniProt P10635);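 further: CYP2D6 member of a cytochrome P450 panel assay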
Cytochrome P450 2D6, sequence (P10635 whole entry): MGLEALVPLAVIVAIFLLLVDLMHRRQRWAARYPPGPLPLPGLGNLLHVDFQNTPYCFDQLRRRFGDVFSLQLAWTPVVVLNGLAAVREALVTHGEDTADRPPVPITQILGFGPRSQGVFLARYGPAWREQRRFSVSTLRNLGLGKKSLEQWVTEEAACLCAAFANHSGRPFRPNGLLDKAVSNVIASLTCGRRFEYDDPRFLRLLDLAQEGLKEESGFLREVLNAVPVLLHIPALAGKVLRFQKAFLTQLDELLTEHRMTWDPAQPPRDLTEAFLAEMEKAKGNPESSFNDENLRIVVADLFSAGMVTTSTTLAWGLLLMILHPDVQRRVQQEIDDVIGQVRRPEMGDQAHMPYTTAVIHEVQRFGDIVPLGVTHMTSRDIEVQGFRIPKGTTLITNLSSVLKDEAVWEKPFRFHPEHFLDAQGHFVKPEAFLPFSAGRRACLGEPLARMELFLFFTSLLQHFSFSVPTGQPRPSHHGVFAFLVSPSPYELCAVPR

[11] = target: Cytochrome P450 2C9 (Homo sapiens, UniProt P11712)
Cytochrome P450 2C9, sequence (P11712 whole entry): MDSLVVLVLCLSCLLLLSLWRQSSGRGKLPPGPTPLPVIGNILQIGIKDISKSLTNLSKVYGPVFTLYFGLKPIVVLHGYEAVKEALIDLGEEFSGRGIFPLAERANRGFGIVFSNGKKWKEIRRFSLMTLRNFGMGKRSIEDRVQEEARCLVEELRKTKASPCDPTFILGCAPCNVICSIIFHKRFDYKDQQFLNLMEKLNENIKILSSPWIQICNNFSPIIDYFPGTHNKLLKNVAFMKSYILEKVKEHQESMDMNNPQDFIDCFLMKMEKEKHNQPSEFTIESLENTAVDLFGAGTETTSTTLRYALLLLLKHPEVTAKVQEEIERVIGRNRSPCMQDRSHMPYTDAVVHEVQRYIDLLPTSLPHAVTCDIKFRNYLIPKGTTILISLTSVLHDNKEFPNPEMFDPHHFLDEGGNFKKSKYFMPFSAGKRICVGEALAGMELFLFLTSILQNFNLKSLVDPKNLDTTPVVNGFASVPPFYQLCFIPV

[12] = target: Cytochrome P450 2C19 (Homo sapiens, UniProt P33261); assay: Cytochrome panel assay with activity outcomes. Panel member name: p450-cyp2c19 Compounds with AC50 equal or less than 10 uM are considered active; format: functional; settings: read-out: AC50
Cytochrome P450 2C19, sequence (P33261 whole entry): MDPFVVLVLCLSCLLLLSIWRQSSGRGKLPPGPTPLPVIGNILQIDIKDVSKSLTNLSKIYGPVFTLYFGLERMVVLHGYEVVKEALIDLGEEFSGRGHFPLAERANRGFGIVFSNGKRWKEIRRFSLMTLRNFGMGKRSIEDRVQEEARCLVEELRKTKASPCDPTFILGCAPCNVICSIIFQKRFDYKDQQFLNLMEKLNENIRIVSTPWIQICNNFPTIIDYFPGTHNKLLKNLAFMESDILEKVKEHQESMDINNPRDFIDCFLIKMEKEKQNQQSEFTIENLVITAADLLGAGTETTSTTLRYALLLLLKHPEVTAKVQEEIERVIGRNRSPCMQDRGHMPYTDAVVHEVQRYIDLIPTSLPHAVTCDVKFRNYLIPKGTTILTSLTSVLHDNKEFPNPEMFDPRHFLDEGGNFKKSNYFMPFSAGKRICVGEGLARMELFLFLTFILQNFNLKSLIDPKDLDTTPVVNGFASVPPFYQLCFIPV

[13] = reduction of Shn3 3'UTR-driven luciferase in osteoblasts – cell-based, Clone20 osteoblasts, firefly luciferase, cherry-picked, dose response (AID 624132); format: functional;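 further: firefly luciferase luminescence from reporter carrying the Shn3 3'UTR in osteoblasts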
[14] = non-specific 3'UTR reporter inhibition in Clone20-Shn3RL – cell-based, Renilla luciferase, cherry-picked, counter-screen for Shn3 inhibitor project, dose response (AID 624133); format: functional
[15] = test system: HEK293; assay: cells; format: functional, cell-based; settings: Homo sapiens
[16] = test system: HEK293; assay: NOD2 signaling inhibitors in MDP-stimulated cells, cell-based, uHTS, luminescence (AID 2001); format: functional; settings: Homo sapiens
[17] = loss of viability in HepG2 cells – cell-based, CellTiter-Glo, cherry-picked, cytotoxicity control for Shn3 inhibitor project, dose response (AID 624134); format: functional
[18] = test system: HEK293; assay: cells; format: functional, cell-based; settings: Homo sapiens; remark: listed apart in the source
[19] = test system: HEK293; assay: inhibition of NOD1-driven NF-kB reporter – cell-based, luminescence, uHTS, primary screen (AID 1578); format: functional; settings: Homo sapiens
[20] = target: T4, Fatty acid synthase (Homo sapiens, UniProt P49327); assay: inhibition of human FAS-TE enzyme activity – biochemical, endpoint fluorescence intensity, uHTS hits, dose response (AID 624327); format: functional;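 further: fluorescence from hydrolysis of an O-methyl fluorescein acyl ester substrate by the enzyme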
T4 sequence (P49327 whole entry): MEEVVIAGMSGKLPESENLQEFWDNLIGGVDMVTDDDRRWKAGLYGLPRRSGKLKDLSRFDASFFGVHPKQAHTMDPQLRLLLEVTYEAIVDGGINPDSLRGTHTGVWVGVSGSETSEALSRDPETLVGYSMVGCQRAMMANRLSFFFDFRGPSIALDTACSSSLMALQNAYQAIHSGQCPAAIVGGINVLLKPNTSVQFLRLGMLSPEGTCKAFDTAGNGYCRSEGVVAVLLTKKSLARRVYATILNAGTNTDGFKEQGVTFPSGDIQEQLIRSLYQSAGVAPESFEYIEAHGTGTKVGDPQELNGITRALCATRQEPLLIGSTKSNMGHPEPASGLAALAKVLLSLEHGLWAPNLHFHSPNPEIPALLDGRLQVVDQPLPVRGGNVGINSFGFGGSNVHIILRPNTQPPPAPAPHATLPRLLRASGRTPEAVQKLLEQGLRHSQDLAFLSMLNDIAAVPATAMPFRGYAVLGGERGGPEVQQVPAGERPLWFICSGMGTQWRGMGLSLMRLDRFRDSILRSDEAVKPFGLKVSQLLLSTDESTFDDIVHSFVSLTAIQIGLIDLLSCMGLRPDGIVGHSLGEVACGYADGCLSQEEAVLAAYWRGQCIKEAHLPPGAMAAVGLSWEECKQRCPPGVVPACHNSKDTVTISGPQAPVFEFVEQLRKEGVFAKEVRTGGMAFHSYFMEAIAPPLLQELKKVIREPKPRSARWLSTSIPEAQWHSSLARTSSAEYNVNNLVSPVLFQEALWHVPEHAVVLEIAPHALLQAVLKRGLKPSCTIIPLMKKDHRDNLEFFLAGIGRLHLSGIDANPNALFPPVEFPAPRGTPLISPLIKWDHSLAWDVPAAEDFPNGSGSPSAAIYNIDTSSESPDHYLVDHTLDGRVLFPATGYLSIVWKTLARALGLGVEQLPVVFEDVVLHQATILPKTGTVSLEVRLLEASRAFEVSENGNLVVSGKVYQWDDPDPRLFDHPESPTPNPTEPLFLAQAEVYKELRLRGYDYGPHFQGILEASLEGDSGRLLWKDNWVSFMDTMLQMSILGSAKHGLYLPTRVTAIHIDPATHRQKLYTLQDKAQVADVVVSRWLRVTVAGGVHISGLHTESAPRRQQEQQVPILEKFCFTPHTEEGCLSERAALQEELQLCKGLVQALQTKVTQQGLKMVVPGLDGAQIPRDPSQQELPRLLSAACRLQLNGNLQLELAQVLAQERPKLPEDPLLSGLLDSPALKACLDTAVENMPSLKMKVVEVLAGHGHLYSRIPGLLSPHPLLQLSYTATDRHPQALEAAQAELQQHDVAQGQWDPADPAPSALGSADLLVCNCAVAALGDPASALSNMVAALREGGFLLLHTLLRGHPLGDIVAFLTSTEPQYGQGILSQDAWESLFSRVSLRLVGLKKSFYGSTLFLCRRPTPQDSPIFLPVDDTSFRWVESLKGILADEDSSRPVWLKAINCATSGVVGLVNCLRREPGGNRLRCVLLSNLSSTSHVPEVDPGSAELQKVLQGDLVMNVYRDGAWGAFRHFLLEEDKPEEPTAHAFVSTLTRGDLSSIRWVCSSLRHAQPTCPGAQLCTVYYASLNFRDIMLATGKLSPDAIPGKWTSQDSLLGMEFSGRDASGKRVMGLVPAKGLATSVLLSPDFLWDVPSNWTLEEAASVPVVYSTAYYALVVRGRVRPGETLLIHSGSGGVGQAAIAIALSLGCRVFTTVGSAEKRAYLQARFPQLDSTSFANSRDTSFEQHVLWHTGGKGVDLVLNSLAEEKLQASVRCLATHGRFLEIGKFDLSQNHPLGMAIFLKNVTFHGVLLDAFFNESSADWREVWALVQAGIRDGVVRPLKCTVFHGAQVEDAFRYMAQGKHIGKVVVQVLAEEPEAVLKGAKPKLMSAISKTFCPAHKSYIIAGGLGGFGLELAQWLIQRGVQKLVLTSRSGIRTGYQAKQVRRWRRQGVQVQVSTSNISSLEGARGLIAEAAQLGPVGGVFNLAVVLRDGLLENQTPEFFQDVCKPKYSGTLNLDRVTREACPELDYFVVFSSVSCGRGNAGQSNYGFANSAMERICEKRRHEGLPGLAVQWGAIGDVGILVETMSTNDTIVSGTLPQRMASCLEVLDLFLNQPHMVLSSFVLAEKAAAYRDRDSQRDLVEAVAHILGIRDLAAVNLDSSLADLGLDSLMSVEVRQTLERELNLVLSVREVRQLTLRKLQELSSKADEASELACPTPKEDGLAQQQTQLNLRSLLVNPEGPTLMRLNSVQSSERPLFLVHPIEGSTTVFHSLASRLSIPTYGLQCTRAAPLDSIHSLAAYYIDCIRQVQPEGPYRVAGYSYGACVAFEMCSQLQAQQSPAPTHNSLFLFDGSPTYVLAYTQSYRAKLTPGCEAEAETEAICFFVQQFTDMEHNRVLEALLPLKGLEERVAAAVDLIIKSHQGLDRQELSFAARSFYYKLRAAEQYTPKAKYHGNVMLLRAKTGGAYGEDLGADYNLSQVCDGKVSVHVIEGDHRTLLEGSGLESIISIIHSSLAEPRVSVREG

[21] = HEK-293T viability loss after treatment – luminescence, T-cell screen hits, cytotoxicity control for TCR NF-kB inhibitor project, dose response (AID 489026); format: functional, cell-based;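 further: cells exposed to compound about 14 hours before the viability readout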
[22] = target: T4, Fatty acid synthase; assay: inhibition of human FAS-TE enzyme activity – biochemical, kinetic fluorescence intensity, dose response (AID 624326); format: functional;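 further: rate of fluorescence rise from hydrolysis of a fluorogenic O-methyl fluorescein ester substrate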
[23] = test system: Streptococcus; assay: GAS UMAA2166 growth inhibition – luminescence, BacTiterGlo, counter-screen for streptokinase expression inhibitor project, dose response (AID 1915); format: functional, organism-based;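 further: potency for reduction of bacterial viability or growth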
[24] = A Cell Based Secondary Assay To Explore Cytotoxicity of Compounds that Sensitize Mycobacterium Tuberculosis to Beta-Lactam Antibiotics.; format: functional
[25] = Luminescence Cell-Based Dose Retest to Confirm Inhibitors of Cancer Stem Cells. [Related pubchem assays (depositor defined):AID2717, AID2721]; format: functional; settings: Homo sapiens
[26] = test system: Streptococcus sp. 'group A'; assay: Streptococcus pyogenes SK(-)GAS viability under kanamycin – luminescence, BacTiterGlo, confirmation, counter-screen for streptokinase expression inhibitor project, dose response (AID 1900); format: functional, organism-based
[27] = target: T5, Streptokinase A (Streptococcus pyogenes serotype M1, UniProt P10520); assay: viability-normalized secreted streptokinase activity reduction – plasminogen activation absorbance, OD405, dose response (AID 1914); format: functional, Streptococcus pyogenes M1 GAS;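 further: secreted streptokinase activity via plasminogen activation per viability signal from cell pellet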
T5 sequence (P10520 whole entry): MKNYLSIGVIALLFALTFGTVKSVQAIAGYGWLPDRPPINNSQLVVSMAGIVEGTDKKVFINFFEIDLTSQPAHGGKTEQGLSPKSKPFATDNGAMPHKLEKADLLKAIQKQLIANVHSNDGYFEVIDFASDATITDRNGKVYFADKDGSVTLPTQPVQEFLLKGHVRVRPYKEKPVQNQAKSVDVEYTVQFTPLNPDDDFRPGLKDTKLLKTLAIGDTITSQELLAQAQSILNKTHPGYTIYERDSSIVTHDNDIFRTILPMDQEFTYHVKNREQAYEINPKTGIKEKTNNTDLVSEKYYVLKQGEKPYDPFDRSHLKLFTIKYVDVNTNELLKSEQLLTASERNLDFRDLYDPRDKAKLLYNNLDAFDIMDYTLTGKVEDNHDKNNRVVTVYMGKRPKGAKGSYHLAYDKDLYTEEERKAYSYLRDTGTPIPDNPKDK

[28] = target: T6, DNA repair protein RAD52 homolog (Homo sapiens, UniProt P43351); format: functional, biochemical
T6 sequence (P43351 whole entry): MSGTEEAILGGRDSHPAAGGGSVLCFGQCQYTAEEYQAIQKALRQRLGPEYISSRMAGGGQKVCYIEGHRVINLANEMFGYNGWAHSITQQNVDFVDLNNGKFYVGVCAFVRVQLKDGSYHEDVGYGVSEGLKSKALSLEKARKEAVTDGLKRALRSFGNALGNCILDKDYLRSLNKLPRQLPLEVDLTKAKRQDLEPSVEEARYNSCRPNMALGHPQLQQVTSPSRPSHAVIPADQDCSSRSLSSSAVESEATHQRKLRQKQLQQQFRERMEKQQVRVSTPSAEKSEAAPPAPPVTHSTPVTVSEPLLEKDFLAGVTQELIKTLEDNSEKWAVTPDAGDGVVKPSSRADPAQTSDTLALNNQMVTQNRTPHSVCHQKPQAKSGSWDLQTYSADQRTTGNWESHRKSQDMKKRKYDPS

[29] = THP-1 cell cytotoxicity, dose response, cytotoxicity control for non-replicating M. tuberculosis project (AID 489025); format: functional
[30] = cells; format: functional

c1ccc(CCNc2ncnc3ccccc23)cc1
IC50 [1]: > 80 µM (inactive)
AC50 [2]: 1.05 µM (active)

COc1ccccc1N1CCN(C(c2cccs2)c2nnnn2C2CCCC2)CC1 (stereo not drawn)
EC50 [3]: 6.33 µM (active)

CCOC(=O)c1cnc2c(C(F)(F)F)cccc2c1N1CCOCC1
IC50 [4]: 13.5 µM (active)

O=S(=O)(c1ccc(F)cc1)c1nc(-c2ccccc2F)oc1N1CCCCC1
IC50 [5]: 19.1 µM (active)
EC50 [6]: > 30 µM (not active)
EC50 [7]: 1.87 µM (active)
IC50 [8]: 12.3 µM (active)

CC1CCN(C(=O)CCCOc2cc(=O)n(C)c3ccccc23)CC1
IC50 [1]: > 80 µM (inactive)

O=S(=O)(Nc1nc2cc3c(cc2nc1Cl)OCCO3)c1ccccc1
IC50 [9]: 66.8 µM (active)

COc1ccc(C(C(=O)NC2CCCCC2)N(C(=O)c2sc(C)nc2C)c2ccc(C(C)=O)cc2)cc1 (stereo not drawn)
AC50 [10]: inconclusive

CCN1C(=O)[C@H]2[C@@H]3[C@H](O)C=CC(=O)[C@H]3CC[C@H]2C1=O
AC50 [10]: inconclusive

COc1cc(C(=O)NC(=S)Nc2ccc3oc(=O)ccc3c2)cc(OC)c1OC
AC50 [10]: inconclusive

O=C(NNS(=O)(=O)c1ccc(Cl)cc1)c1cc(-c2ccccc2)nc2ccccc12
IC50 [9]: 36.5 µM (active)

CN1C(=O)CC(c2ccco2)Sc2ccccc21 (stereo not drawn)
IC50 [1]: > 80 µM (inactive)

O=C(O)C1CCN(c2c([N+](=O)[O-])cc(C(F)(F)F)cc2[N+](=O)[O-])CC1
AC50 [11]: 35.5 µM (inconclusive)
AC50 [12]: 14.1 µM (inconclusive)
AC50 [10]: inconclusive

Cc1ccccc1N(CC(=O)NC1CCCC1)C(=O)C[S+]([O-])CC(=O)Nc1ccc2c(c1)OCO2 (stereo not drawn)
IC50 [9]: 63.9 µM (active)

Cn1c(SCC(=O)N2CCCc3ccccc32)nc2ccccc2c1=O
AC50 [13]: 3.46 µM (active)
AC50 [14]: 4.04 µM (active)
IC50 [15]: 13.5 µM (active)
IC50 [16]: 6.57 µM (active)
AC50 [17]: 43.6 µM (active)
IC50 [18]: 5.85 µM (active)
EC50 [19]: 4.77 µM (active)

O=C(NCc1ccc2c(c1)OCO2)c1cc([N+](=O)[O-])ccc1N1CCOCC1
IC50 [20]: 11.5 µM (active)
IC50 [21]: > 80 µM (inactive)
IC50 [22]: 8.35 µM (active)

CC(C)c1ccc(NC2CCCN(C(=O)c3cnn(C(C)C)c3)C2)cc1 (stereo not drawn)
IC50 [5]: 9.04 µM (active)
IC50 [8]: 6.21 µM (active)

COCCn1c(C)cc2c(c1=O)C(c1ccccc1F)C(C#N)=C(N)O2 (stereo not drawn)
AC50 [11]: 17.8 µM (inconclusive)
AC50 [10]: inconclusive

CC12CCC(C/C1=N\NC1=NC(=O)/C(=C\c3cccc(Br)c3)S1)C2(C)C (stereo not drawn)
EC50 [23]: 2.89 µM (active)
CC50 [24]: > 40 µM (active)
AC50 [25]: 1.95 µM (active)
EC50 [26]: 0.343 µM (active)
EC50 [27]: > 150 µM (not active)

N=C(N)Nc1nc(-c2ccccc2)c2ccccc2n1
AC50 [28]: 16.6 µM (active)
EC50 [6]: > 60 µM (not active)
CC50 [29]: 21.2 µM (active)
IC50 [30]: 34.5 µM (active)
EC50 [7]: 0.142 µM (active)
